Source: patent US12116424B2, “Compounds and compositions for modulating Listeria virulence” (priority 2021, dated 2024)
Where two headings read alike, the source gives them in different places. Where a SMILES comes first, the peptide text is derived from it. Bridges are numbered along the chain shown (N, C = ends). [ ]: non-standard residue; d: D form.

Assays:
L. monocytogenes AgrC [1] = molecular target: T1, L. monocytogenes AgrC (Listeria monocytogenes serovar 1/2a, UniProt Q8YAR5); assay: Fluorescence (agr-GFP) reporter agonism assay, ΔagrD reporter strain; type: cell-based; design: Emax: dose or concentration left out as unconfirmed
Procedure, shortened: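 L. monocytogenes EGD-e strains carrying agr promoter-GFP plasmid: ΔagrD for agonism (normalized to 1 μM AIP), wild type for antagonism (normalized to DMSO). Peptides in 1% DMSO with diluted overnight culture in BHI, 24 h at 37 °C shaking; GFP fluorescence corrected for background and OD600, four-parameter dose-response fit.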

L. monocytogenes AgrC [2] = molecular target: T1, L. monocytogenes AgrC; assay: Fluorescence (agr-GFP) reporter antagonism assay, wild-type EGD-e reporter strain; type: cell-based
Description: Construction of Listeria agr Reporter Strains. A gene block was designed and purchased from Integrated DNA Technologies to contain an EagI recognition site, the PII promoter of the agr system, the 3′ UTR of hly, super folder GFP, and a SaII recognition site. The gene block was digested with EagI and SaII, cloned into an EagI/SaII-cut pAM401 plasmid resulting in the plasmid pAM401-KW1, and then transformed into E. coli XL1-Blue competent cells. The insertion into pAM401 was confirmed using Kapa polymerase and primers DAP337 and DAP338, and additional confirmation via commercial sequencing. Purified plasmid was transformed into the conjugative E. coli S17 strain, which was used to conjugate to EGD-e and EGD-e ΔagrD to generate the agr-GFP reporter strains EGD-e:pAM401-KW1 and EGD-e ΔagrD:pAM401-KW1. Conjugation was verified using primers DAP337 and DAP338.
Fluorescence reporter assay protocol. For QS (agr) reporter assays, peptide stock solutions in DMSO (1 mM) were serially diluted in DMSO, and 2 μL of solution was added to each well in a black 96-well plate (polystyrene microtiter plate, Costar). Agonism assays utilized the ΔagrD reporter strain, with 2 μL of 100 μM AIP (final concentration 1 μM) as a positive control and 2 μL of DMSO as a negative control. Antagonism assays utilized the EGD-e reporter strain, with 2 μL of DMSO as a positive control. In both assays, wells containing only BHI media served as negative controls for normalization. An overnight culture of bacteria was diluted 1:50 in fresh BHI, then 198 μL were transferred to each well (excluding the media control wells). Plates were then incubated at 37° C. for 24 hours with shaking at 200 rpm. Fluorescence of GFP (excitation at 500 nm, emission at 540 nm) and OD600 of each well was measured using BioTek Synergy 2 plate reader. Measurements were processed by subtracting background fluorescence (BHI media), correcting by OD600, and the normalizing using the 1 μM AIP or the DMSO control for the agonism and antagonism assays, respectively. Non-linear regression curves were fitted to the data sets in GraphPad Prism 7 by using variable slope (four-parameter) dose-response analysis to obtain potency, efficacy, and statistical information about the activity of tested peptides. Each peptide was tested with three technical replicates and three biological replicates. All data derived from fluorescent reporter strains are represented with data points signifying the mean and error bars signifying the standard deviation from all replicates.
Preparation and Validation of Listeria agr Reporter Strains. […] However, adding exogenous AIP to the ΔagrD reporter results in an increase of fluorescence, indicating agr activity has been restored.

L. monocytogenes EGD-e = type: cell-based, Listeria monocytogenes
Procedure: Biofilm assay protocol. Biofilms assays were adapted from previous reports and protocols.^51-52 Overnight cultures of L. monocytogenes EGD-e and ΔagrD were grown in BHI, then diluted 1:100 in LB. For single-point assays, 2 μL of agonists or antagonists at an appropriate concentration were added to wells in a clear 96-well microtiter plates. For dose-response assays, a stock solution of the select peptide were serially diluted in DMSO, then 2 μL of each concentration were transferred to the appropriate wells. Then, 198 μL of bacteria were added to their respective wells, using ΔagrD for agonist wells and EGD-e for antagonist wells. In each plate, additional vehicle controls for baseline biofilm formation of EGD-e and ΔagrD strains (2 μL of DMSO) were included, as well as a media control (200 μL of LB). Plates were incubated at room temperature for 24 hours statically, at which point plates were inverted over a glass waste container and gently shook to remove planktonic bacteria. The wells were gently washed with 200 μL of PBS twice, inverting again over the waste container to remove liquid. Then, 200 μL of 0.1% crystal violet solution (in water) were added to each well and incubated for 30 minutes. The wells were then washed with 200 μL of PBS three more times and left to air dry for 15 minutes. Remaining crystal violet was solubilized by the addition of 100 μL of 95% ethanol in water solution, pipetting up and down to mix, incubated for 10 minutes, then absorbance was read at 595 nm. Absorbance data was processed by normalizing to the EGD-e vehicle control (100%) and the LB media control (0%). Non-linear regression curves were fitted to the data sets in GraphPad Prism 7 by using variable slope (four-parameter) dose-response analysis to obtain potency, efficacy, and statistical information about the activity of tested peptides. Each well was tested with four technical replicates and three biological replicates. […]

[3] = system: L. monocytogenes EGD-e ΔagrD; assay: Crystal violet biofilm assay, ΔagrD strain (agonists); type: cell-based, Listeria monocytogenes
Procedure: Biofilm assay protocol. Biofilms assays were adapted from previous reports and protocols.^51-52 Overnight cultures of L. monocytogenes EGD-e and ΔagrD were grown in BHI, then diluted 1:100 in LB. For single-point assays, 2 μL of agonists or antagonists at an appropriate concentration were added to wells in a clear 96-well microtiter plates. For dose-response assays, a stock solution of the select peptide were serially diluted in DMSO, then 2 μL of each concentration were transferred to the appropriate wells. Then, 198 μL of bacteria were added to their respective wells, using ΔagrD for agonist wells and EGD-e for antagonist wells. In each plate, additional vehicle controls for baseline biofilm formation of EGD-e and ΔagrD strains (2 μL of DMSO) were included, as well as a media control (200 μL of LB). Plates were incubated at room temperature for 24 hours statically, at which point plates were inverted over a glass waste container and gently shook to remove planktonic bacteria. The wells were gently washed with 200 μL of PBS twice, inverting again over the waste container to remove liquid. Then, 200 μL of 0.1% crystal violet solution (in water) were added to each well and incubated for 30 minutes. The wells were then washed with 200 μL of PBS three more times and left to air dry for 15 minutes. Remaining crystal violet was solubilized by the addition of 100 μL of 95% ethanol in water solution, pipetting up and down to mix, incubated for 10 minutes, then absorbance was read at 595 nm. Absorbance data was processed by normalizing to the EGD-e vehicle control (100%) and the LB media control (0%). Non-linear regression curves were fitted to the data sets in GraphPad Prism 7 by using variable slope (four-parameter) dose-response analysis to obtain potency, efficacy, and statistical information about the activity of tested peptides. Each well was tested with four technical replicates and three biological replicates. All data derived from crystal violet biofilm assays are represented with data points signifying the mean and error bars signifying the standard deviation from all replicates.

[4] = read-out: Max Activation Observed

T1 sequence (Q8YAR5 entry or part of it): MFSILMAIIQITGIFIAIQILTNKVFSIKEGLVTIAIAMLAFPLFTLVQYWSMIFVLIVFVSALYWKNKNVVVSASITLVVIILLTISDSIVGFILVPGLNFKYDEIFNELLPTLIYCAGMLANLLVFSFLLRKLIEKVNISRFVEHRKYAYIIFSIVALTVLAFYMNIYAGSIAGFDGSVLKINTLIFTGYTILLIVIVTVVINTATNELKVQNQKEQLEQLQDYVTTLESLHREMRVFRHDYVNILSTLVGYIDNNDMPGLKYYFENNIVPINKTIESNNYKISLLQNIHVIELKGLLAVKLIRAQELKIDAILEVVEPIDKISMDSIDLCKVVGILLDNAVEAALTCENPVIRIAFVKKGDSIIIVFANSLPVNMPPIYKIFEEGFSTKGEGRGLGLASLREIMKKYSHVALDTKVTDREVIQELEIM

Compound: CSCC[C@H]1NC(=O)[C@H](Cc2ccccc2)NC(=O)[C@H](NC(=O)[C@@H](N)CCCCN)CSC(=O)[C@H](C(C)C)NC(=O)[C@H](Cc2ccccc2)NC1=O [A1K/C2dC/M4dM, K-(dC-F-dM-F-V)] (H-K[dC]F[dM]FV; thioester 2-C)
- Emax (L. monocytogenes AgrC [1]; [4]): 8.1%
- antagonism activity (in words) (L. monocytogenes AgrC [2]): inhibiting wild-type activity to levels similar to basal ΔagrD activity
- biofilm of wild-type (WT) strain (FIG. 9B) (L. monocytogenes EGD-e): reduces biofilm
- wild-type biofilm formation reduced by (L. monocytogenes EGD-e; 100 μM): 90%
- IC50 (L. monocytogenes EGD-e; dose-response, wild-type biofilm, read-out: IC50 (biofilm formation)): 1.86 µM

Compound: CSCC[C@@H]1NC(=O)[C@H](Cc2ccccc2)NC(=O)[C@@H](NC(=O)[C@H](C)N)CSC(=O)[C@H](C(C)C)NC(=O)[C@H](Cc2ccccc2)NC1=O [AIP, A-(C-F-M-F-V), reference compound] (H-ACFMFV; thioester 2-C; N-terminus assumed)
- Emax (L. monocytogenes AgrC [1]; read-out: Max Activation): 114%
- Emax at 1 µM (L. monocytogenes AgrC [1]; read-out: Max Activation): 114%
- Emax (L. monocytogenes AgrC [1]; [4]): 114%
- biofilm formation of ΔagrD strain (FIG. 9A) [3]: increase biofilm formation
- biofilm production compared to vehicle controls ([3]; 10 μM, ΔagrD bacteria): doubled
